Reference: US20230398130A1, “METHODS AND COMPOSITIONS FOR DIFFERENTIATING STEM CELLS” (Massachusetts Institute of Technology, priority 2020, published 2023)

Key:
ISC-enriched organoids [1] = assay: Primary screen, 384-well 2.5-D organoid differentiation (ENR+CD, 6 days): basal lysozyme secretion (LYZ.NS); type: cell-based, murine; settings: for Dose.FC.LYZ.NS: FC vs plate median; for Z.LYZ.NS: standard z score of FC; for Dose.FC.LYZ.NS (log 2 fold change, basal lysozyme secretion): vs plate median
Text: (§1) High-throughput screening.

ISC-enriched organoids [2] = assay: Primary screen, 384-well 2.5-D organoid differentiation (ENR+CD, 6 days, Target Selective Inhibitor Library, vs whole-plate median): ATP (CellTiter-Glo 3D, CTG); settings: for Dose.FC.CTG: FC vs plate median; for Z.CTG: standard z score of FC; for Dose.FC.CTG (log 2 fold change, ATP): vs plate median
ISC-enriched organoids [3] = assay: Primary screen, 384-well 2.5-D organoid differentiation (ENR+CD, 6 days): carbachol-induced lysozyme secretion (LYZ.S); type: cell-based, murine; settings: for Dose.FC.LYZ.S: FC vs plate median; for Dose.FC.LYZ.S (log 2 fold change, carbachol-induced lysozyme secretion): vs plate median
Text: as §1

`COc1cc(Nc2ncc(F)c(Nc3ccc4c(n3)N(COP(=O)(O)O)C(=O)C(C)(C)O4)n2)cc(OC)c1OC` [Fostamatinib (R788)] gave a Dose.FC.LYZ.NS (ISC-enriched organoids [1]; Dose 0.08 uM, ENR+CD, 6 days) of 0.119 log 2 fold change, a Z.LYZ.NS (ISC-enriched organoids [1]; Dose 0.08 uM) of 1.033 and a Dose.FC.LYZ.NS (ISC-enriched organoids [1]; Dose 0.40 uM, ENR+CD, 6 days) of −0.025 log 2 fold change. The Z.LYZ.NS (ISC-enriched organoids [1]; Dose 0.40 uM) was −0.217, the Dose.FC.LYZ.NS (ISC-enriched organoids [1]; Dose 2.00 uM, ENR+CD, 6 days) was −0.099 log 2 fold change and the Z.LYZ.NS (ISC-enriched organoids [1]; Dose 2.00 uM) was −0.860. The Dose.FC.LYZ.NS (ISC-enriched organoids [1]; Dose 10.00 uM, ENR+CD, 6 days) was −0.234 log 2 fold change, the Z.LYZ.NS (ISC-enriched organoids [1]; Dose 10.00 uM) was −2.036 and the Dose.FC.CTG (ISC-enriched organoids [2]; Dose 0.08 uM, ENR+CD, 6 days) was 0.232 log 2 fold change. The Z.CTG (ISC-enriched organoids [2]; Dose 0.08 uM) was 0.554, the Dose.FC.CTG (ISC-enriched organoids [2]; Dose 0.40 uM, ENR+CD, 6 days) was −0.052 log 2 fold change and the Z.CTG (ISC-enriched organoids [2]; Dose 0.40 uM) was −0.123. It also gave a Dose.FC.CTG (ISC-enriched organoids [2]; Dose 2.00 uM, ENR+CD, 6 days) of −0.231 log 2 fold change, a Z.CTG (ISC-enriched organoids [2]; Dose 2.00 uM) of −0.552 and a Dose.FC.CTG (ISC-enriched organoids [2]; Dose 10.00 uM, ENR+CD, 6 days) of −0.881 log 2 fold change. The Z.CTG (ISC-enriched organoids [2]; Dose 10.00 uM) was −2.105, the Dose.FC.LYZ.S (ISC-enriched organoids [3]; Dose 0.08 uM, ENR+CD, 6 days) was 0.235 log 2 fold change and the Dose.FC.LYZ.S (ISC-enriched organoids [3]; Dose 0.40 uM, ENR+CD, 6 days) was 0.156 log 2 fold change. For the same molecule, the Dose.FC.LYZ.S (ISC-enriched organoids [3]; Dose 2.00 uM, ENR+CD, 6 days) was −0.015 log 2 fold change and the Dose.FC.LYZ.S (ISC-enriched organoids [3]; Dose 10.00 uM, ENR+CD, 6 days) was −0.350 log 2 fold change.
In the case of `c1ccc(NCc2ccc(CNc3ccccn3)cc2)nc1` [WZ811], the “Z.LYZ.NS (standard z score)” value (ISC-enriched organoids [1]; dose 0.08 uM) is reported as 1.337, the “Dose.FC.LYZ.NS (log 2 fold change, basal lysozyme secretion)” value (ISC-enriched organoids [1]; dose 0.08 uM) is reported as 0.154 and the “Z.LYZ.NS (standard z score)” value (ISC-enriched organoids [1]; dose 0.40 uM) is reported as 0.162. The “Dose.FC.LYZ.NS (log 2 fold change, basal lysozyme secretion)” value (ISC-enriched organoids [1]; dose 0.40 uM) was 0.019, the “Z.LYZ.NS (standard z score)” value (ISC-enriched organoids [1]; dose 2.00 uM) was 0.815 and the “Dose.FC.LYZ.NS (log 2 fold change, basal lysozyme secretion)” value (ISC-enriched organoids [1]; dose 2.00 uM) was 0.094. The “Z.LYZ.NS (standard z score)” value (ISC-enriched organoids [1]; dose 10.00 uM) was 0.045, the “Dose.FC.LYZ.NS (log 2 fold change, basal lysozyme secretion)” value (ISC-enriched organoids [1]; dose 10.00 uM) was 0.005 and the “Z.CTG (standard z score)” value (ISC-enriched organoids [2]; dose 0.08 uM) was 0.334. The “Dose.FC.CTG (log 2 fold change, ATP)” value (ISC-enriched organoids [2]; dose 0.08 uM) was 0.140, the “Z.CTG (standard z score)” value (ISC-enriched organoids [2]; dose 0.40 uM) was −0.082 and the “Dose.FC.CTG (log 2 fold change, ATP)” value (ISC-enriched organoids [2]; dose 0.40 uM) was −0.034. For the same molecule, the “Z.CTG (standard z score)” value (ISC-enriched organoids [2]; dose 2.00 uM) was 0.184, the “Dose.FC.CTG (log 2 fold change, ATP)” value (ISC-enriched organoids [2]; dose 2.00 uM) was 0.077 and the “Z.CTG (standard z score)” value (ISC-enriched organoids [2]; dose 10.00 uM) was 0.104. For the same molecule, the “Dose.FC.CTG (log 2 fold change, ATP)” value (ISC-enriched organoids [2]; dose 10.00 uM) was 0.044, the “Dose.FC.LYZ.S (log 2 fold change, carbachol-induced lysozyme secretion)” value (ISC-enriched organoids [3]; dose 0.08 uM) was 0.296 and the “Dose.FC.LYZ.S (log 2 fold change, carbachol-induced lysozyme secretion)” value (ISC-enriched organoids [3]; dose 0.40 uM) was 0.007. The “Dose.FC.LYZ.S (log 2 fold change, carbachol-induced lysozyme secretion)” value (ISC-enriched organoids [3]; dose 2.00 uM) was 0.074 and the “Dose.FC.LYZ.S (log 2 fold change, carbachol-induced lysozyme secretion)” value (ISC-enriched organoids [3]; dose 10.00 uM) was 0.019.
For `Cc1ccc(S(=O)(=O)c2ccc([N+](=O)[O-])o2)cc1` [NSC697923], the Dose.FC.LYZ.NS (ISC-enriched organoids [1]; Dose 0.08 uM, primary screen) was 0.091 log 2 fold change, the Z.LYZ.NS (ISC-enriched organoids [1]; Dose 0.08 uM) was 0.789 and the Dose.FC.LYZ.NS (ISC-enriched organoids [1]; Dose 0.40 uM, primary screen) was 0.051 log 2 fold change. For the same molecule, the Z.LYZ.NS (ISC-enriched organoids [1]; Dose 0.40 uM) was 0.441, the Dose.FC.LYZ.NS (ISC-enriched organoids [1]; Dose 2.00 uM, primary screen) was −0.104 log 2 fold change and the Z.LYZ.NS (ISC-enriched organoids [1]; Dose 2.00 uM) was −0.906. The Dose.FC.LYZ.NS (ISC-enriched organoids [1]; Dose 10.00 uM, primary screen) was −0.154 log 2 fold change, the Z.LYZ.NS (ISC-enriched organoids [1]; Dose 10.00 uM) was −1.338 and the Dose.FC.CTG (ISC-enriched organoids [2]; Dose 0.08 uM, primary screen) was −0.052 log 2 fold change. It also gave a Z.CTG (ISC-enriched organoids [2]; Dose 0.08 uM) of −0.123, a Dose.FC.CTG (ISC-enriched organoids [2]; Dose 0.40 uM, primary screen) of −0.014 log 2 fold change and a Z.CTG (ISC-enriched organoids [2]; Dose 0.40 uM) of −0.033. It also gave a Dose.FC.CTG (ISC-enriched organoids [2]; Dose 2.00 uM, primary screen) of −0.101 log 2 fold change, a Z.CTG (ISC-enriched organoids [2]; Dose 2.00 uM) of −0.241 and a Dose.FC.CTG (ISC-enriched organoids [2]; Dose 10.00 uM, primary screen) of −0.782 log 2 fold change. It also gave a Z.CTG (ISC-enriched organoids [2]; Dose 10.00 uM) of −1.867, a Dose.FC.LYZ.S (ISC-enriched organoids [3]; Dose 0.08 uM, primary screen) of 0.036 log 2 fold change and a Dose.FC.LYZ.S (ISC-enriched organoids [3]; Dose 0.40 uM, primary screen) of 0.108 log 2 fold change. The Dose.FC.LYZ.S (ISC-enriched organoids [3]; Dose 2.00 uM, primary screen) was −0.154 log 2 fold change and the Dose.FC.LYZ.S (ISC-enriched organoids [3]; Dose 10.00 uM, primary screen) was −0.270 log 2 fold change.
`CCOC(=O)c1cncn1[C@H](C)c1ccccc1` [Etomidate] gave a Dose.FC.LYZ.NS (ISC-enriched organoids [1]; Dose 0.08 uM, ENR+CD, 6 days) of −0.008 log 2 fold change, a Z.LYZ.NS (ISC-enriched organoids [1]; Dose 0.08 uM) of −0.065 and a Dose.FC.LYZ.NS (ISC-enriched organoids [1]; Dose 0.40 uM, ENR+CD, 6 days) of 0.037 log 2 fold change. It also gave a Z.LYZ.NS (ISC-enriched organoids [1]; Dose 0.40 uM) of 0.318, a Dose.FC.LYZ.NS (ISC-enriched organoids [1]; Dose 2.00 uM, ENR+CD, 6 days) of 0.015 log 2 fold change and a Z.LYZ.NS (ISC-enriched organoids [1]; Dose 2.00 uM) of 0.131. For the same molecule, the Dose.FC.LYZ.NS (ISC-enriched organoids [1]; Dose 10.00 uM, ENR+CD, 6 days) was −0.001 log 2 fold change, the Z.LYZ.NS (ISC-enriched organoids [1]; Dose 10.00 uM) was −0.010 and the Dose.FC.CTG (ISC-enriched organoids [2]; Dose 0.08 uM, ENR+CD, 6 days) was 0.084 log 2 fold change. For the same molecule, the Z.CTG (ISC-enriched organoids [2]; Dose 0.08 uM) was 0.201, the Dose.FC.CTG (ISC-enriched organoids [2]; Dose 0.40 uM, ENR+CD, 6 days) was 0.006 log 2 fold change and the Z.CTG (ISC-enriched organoids [2]; Dose 0.40 uM) was 0.014. It also gave a Dose.FC.CTG (ISC-enriched organoids [2]; Dose 2.00 uM, ENR+CD, 6 days) of 0.163 log 2 fold change, a Z.CTG (ISC-enriched organoids [2]; Dose 2.00 uM) of 0.389 and a Dose.FC.CTG (ISC-enriched organoids [2]; Dose 10.00 uM, ENR+CD, 6 days) of 0.039 log 2 fold change. It also gave a Z.CTG (ISC-enriched organoids [2]; Dose 10.00 uM) of 0.094, a Dose.FC.LYZ.S (ISC-enriched organoids [3]; Dose 0.08 uM, ENR+CD, 6 days) of 0.053 log 2 fold change and a Dose.FC.LYZ.S (ISC-enriched organoids [3]; Dose 0.40 uM, ENR+CD, 6 days) of 0.048 log 2 fold change. It also gave a Dose.FC.LYZ.S (ISC-enriched organoids [3]; Dose 2.00 uM, ENR+CD, 6 days) of 0.054 log 2 fold change and a Dose.FC.LYZ.S (ISC-enriched organoids [3]; Dose 10.00 uM, ENR+CD, 6 days) of −0.008 log 2 fold change.
